{
  "source": "patent US20100048516A1",
  "about": "“PENETRATION ENHANCER FOR FUNGICIDES” (Bayer CropScience AG, priority 2006, published 2010)",
  "key": {"[1]": {"system": "crop plant", "assay": "Crop plant tolerance tests of TBEP versus other alkyl ester additives", "format": "in vivo", "conditions": "compared with other alkyl ester additives"}, "[2]": {"assay": "Penetration test: penetration of radioactively marked active substance through isolated apple leaf cuticles in diffusion cells", "conditions": "for % Penetration (after hours): acetone/tap water 20/80% by weight, 20-25° C., rel. humidity 56-60%, mean of 4-8 repetitions", "method": "In this test, the penetration of active substances through enzymatically isolated cuticles of apple tree leaves was measured. The cuticles represent all green plant parts, such as leaf blade, petiole, stalk, trunk, hypocotyl and many fruits.\nLeaves which were cut off in the stage of full development of apple trees of the Golden Delicious variety were used. The isolation of the cuticles was effected in a manner such that • first, leaf disks marked on the underside with dye and punched out were filled by means of vacuum infiltration with a pectinase solution (0.2 to 2% strength by weight) buffered to a pH between 3 and 4, • sodium azide was then added and • the leaf disks thus treated were allowed to stand until disintegration of the original leaf structure and detachment of the noncellular cuticle.\nThereafter, only those cuticles of the upper sides of the leaves which were free of stomata and hairs were further used. They were washed several times alternately with water and a buffer solution at pH 7. The cleaned cuticles obtained were finally drawn onto small Teflon plates and smoothed and dried with a gentle air jet.\nIn the next step, the cuticle membranes thus obtained were placed in stainless steel diffusion cells (=transport chambers) for membrane transport investigations. For this purpose, the cuticles were placed by means of forceps centrally on the silicone grease-coated edges of the diffusion cells and closed with a likewise greased ring. The arrangement was chosen so that the morphological outside of the cuticles faced outward, i.e. toward the air, while the original inside faced the interior of the diffusion cell. The diffusion cells were filled with water or with a mixture of water and solvent.\nFor determining the penetration, in each case 10 μl of a spray liquor of the composition mentioned in the examples were applied to the outside of a cuticle.\nIn each case the solvents listed below in the table (tap water or a mixture with 20% by weight of acetone/80% by weight of tap water) were used in the spray liquors.\nAfter the application of the spray liquors, in each case the solvent was allowed to evaporate, and in each case the chambers were then turned around and placed in thermostated trays, air having a defined temperature and atmospheric humidity being blown onto the outside of the cuticle. The incipient penetration therefore took place at a relative humidity of 60% and a set temperature of 20 or 25° C. The active substance penetration was measured with radioactively marked active substance."}, "[3]": {"conditions": "after 3 hours, 0.2 g/l active substance without or with 0.5 g/l TBEP, apple leaf cuticles"}, "[4]": {"conditions": "after 24 hours, 0.2 g/l active substance without or with 0.5 g/l TBEP, apple leaf cuticles"}},
  "note": "Entries after “also recorded” stand apart in the source; their conditions may differ.",
  "data": [
    {"smiles": "CCCCOCCOP(=O)(OCCOCCCC)OCCOCCCC", "note": "[TBEP, tributoxyethyl phosphate]", "values": [
      {"measurement": "Crop plant tolerance (in words)", "setting": "[1]", "result": "more tolerant than other alkyl ester additives"},
      {"measurement": "Effect of the penetration enhancer on uptake of active substances (in words)", "setting": "[2]; summary of tables 1 and 2, apple leaf cuticles", "result": "considerable increase in uptake of the active substances; also recorded: advantageously higher increase in uptake of active substances than the penetration enhancers of the prior art"}
    ]},
    {"smiles": "COc1ccccc1C(=O)NS(=O)(=O)c1ccc(C(=O)NC2CC2)cc1", "note": "[cyprosulfamide, 4-cyclopropylaminocarbonyl-N-(2-methoxybenzoyl)benzenesulfonamide]", "values": [
      {"measurement": "% Penetration (after hours)", "setting": "[2]; [3]", "result": "0.1 (3) %"},
      {"measurement": "% Penetration (after hours)", "setting": "[2]; [4]", "result": 0.3, "unit": "%"}
    ]},
    {"smiles": "CCOC(=O)C(C)Oc1ccc(Oc2nc3ccc(Cl)cc3o2)cc1", "note": "(stereo not drawn) [fenoxaprop-P-ethyl, ethyl 2-(4-(6-chlorobenzoxazol-2-yloxy)phenoxy)propionate]", "values": [
      {"measurement": "% Penetration (after 24 hours)", "setting": "[2]; apple tree, 24 h, 0.3 g/l", "result": 0.3, "unit": "%"},
      {"measurement": "% Penetration (after 48 hours)", "setting": "[2]; apple tree, 48 h, 0.3 g/l", "result": 0.9, "unit": "%"}
    ]},
    {"smiles": "CCOC(=O)C1=NOC(c2ccccc2)(c2ccccc2)C1", "note": "[isoxadifen-ethyl, ethyl 5,5-diphenyl-2-isoxazolinecarboxylate]", "values": [
      {"measurement": "% Penetration (after hours)", "setting": "[2]; [3]", "result": "1.7 (3) %"},
      {"measurement": "% Penetration (after hours)", "setting": "[2]; [4]", "result": 17.4, "unit": "%"}
    ]},
    {"smiles": "CCOC(=O)C1=NN(c2ccc(Cl)cc2Cl)C(C)(C(=O)OCC)C1", "note": "(stereo not drawn) [mefenpyr-diethyl, ethyl 1-(2,4-dichlorophenyl)-5-(ethoxycarbonyl)-5-methyl-2-pyrazoline-3-carboxylate]", "values": [
      {"measurement": "% Penetration (after hours)", "setting": "[2]; [3]", "result": "0.4 (3) %"},
      {"measurement": "% Penetration (after hours)", "setting": "[2]; [4]", "result": 4.9, "unit": "%"}
    ]},
    {"smiles": "O=C(Nc1ccccc1)Nc1cnns1", "note": "[thidiazuron]", "values": [
      {"measurement": "% Penetration (after hours)", "setting": "[2]; after 6 hours, 0.2 g/l thidiazuron without or with 3 g/l TBEP, apple leaf cuticles", "result": "0.6 (6) %"},
      {"measurement": "% Penetration (after hours)", "setting": "[2]; after 24 hours, 0.2 g/l thidiazuron without or with 3 g/l TBEP, apple leaf cuticles", "result": 0.9, "unit": "%"}
    ]}
  ]
}
